Experimental data from article PMC3070790 (Bioorganic & medicinal chemistry letters, 2011).
“Also recorded” adds a separate entry of the source. Read-outs that look alike come from different tables or passages of the source.

How the values were obtained:
[1] = tested on: primary rat cerebellar neurons; type: cell-based
[2] = target: T1, light chain of BoNT serotype A (LC/A) (Clostridium botulinum, UniProt P0DPI1); type: biochemical
[3] = target: T1, light chain of BoNT serotype A (LC/A); details: cited from earlier work

T1 sequence (P0DPI1 2-448 limits assumed): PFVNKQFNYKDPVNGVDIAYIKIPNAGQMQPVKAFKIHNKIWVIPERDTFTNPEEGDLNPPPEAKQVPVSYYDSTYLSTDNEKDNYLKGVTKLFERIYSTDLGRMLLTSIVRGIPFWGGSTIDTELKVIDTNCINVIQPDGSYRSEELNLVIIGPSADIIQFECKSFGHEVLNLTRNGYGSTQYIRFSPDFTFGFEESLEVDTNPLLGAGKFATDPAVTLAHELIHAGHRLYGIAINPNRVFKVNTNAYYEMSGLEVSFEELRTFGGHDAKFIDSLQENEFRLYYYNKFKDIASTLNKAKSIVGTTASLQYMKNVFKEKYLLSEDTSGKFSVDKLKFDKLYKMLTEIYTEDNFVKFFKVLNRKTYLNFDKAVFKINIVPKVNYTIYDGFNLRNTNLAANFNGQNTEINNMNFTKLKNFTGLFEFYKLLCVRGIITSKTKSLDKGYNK

Structure (SMILES) | protection against BoNT/A (intracellular SNAP-25 cleavage) [1] | Ki [2] | mechanism of inhibition [2] | fold less potent than 7 (Ki) [2] | mechanism of inhibition [3]
C=C(C)[C@@H]1CC[C@]2(COC(=O)CCC(=O)O)CC[C@]3(C)[C@H](CC[C@@H]4[C@@]5(C)CC[C@H](O)C(C)(C)[C@@H]5CC[C@]43C)[C@@H]12 [Compound 7, 28-hemisuccinylbetulin] | did not show any protection; also recorded: did not show inhibitory activity; also recorded: did not demonstrate protection | sub-micromolar | competitive |  | 
C=C(C)[C@@H]1CC[C@]2(COC(=O)COc3cc(C(C)C)ccc3C)CC[C@]3(C)[C@H](CC[C@@H]4[C@@]5(C)CC[C@H](O)C(C)(C)[C@@H]5CC[C@]43C)[C@@H]12 [Compound 8, betulinyl 28-carboxymethoxycarvacrolate] |  |  | competitive | about 16 fold | 
C=C(C)[C@@H]1CC[C@]2(C(=O)O)CC[C@]3(C)[C@H](CC[C@@H]4[C@@]5(C)CC[C@H](O)C(C)(C)[C@@H]5CC[C@]43C)[C@@H]12 [Compound 18, betulinic acid] |  |  | competitive | ~18 fold | 
O=C(/C=C/c1ccc(O)c(O)c1)O[C@H](C(=O)O)[C@H](OC(=O)/C=C/c1ccc(O)c(O)c1)C(=O)O [D-chicoric acid] |  |  |  |  | noncompetitive partial inhibition
